Measured values reported in patent publication EP1282414B1, “FELBAMATE DERIVED COMPOUNDS FOR TREATING NEUROPATHIC PAIN” (University of Virginia Patent Foundation, priority 2000, dated 2001).
Values belong to the molecule of their own block, whether it stands above or below them.

Experiments:
[1] = LC/MS quantification of felbamate and metabolites in patient urine; assay type: in vivo, patients
Method: Preparation of Patient Urine Samples. Urine samples were obtained from patient volunteers undergoing felbamate therapy for control of epileptic seizures and under the care of physicians at either the University of Virginia (Charlottesville, Virginia) or the EpiCare Center (Memphis, Tennessee). Urine samples were diluted four fold with distilled water (this was done prior to overnight shipment for samples requiring shipping) and placed in an orbital shaking water bath for ∼ 20 min at 37 °C to insure that all of the analytes were in solution. 500 µL of this diluted sample were removed and added to 100 µL of a mixture of the four deuterated internal standards. […] After mixing, 200 µL were removed and added to 20 µL of 20% H0Ac. This acidified sample was then applied to a preconditioned Waters "Oasis" solid phase extraction cartridge (Waters Corp., Woburn, MA). The cartridge was washed with 2 mL 0.1% HOAc followed by 3 mL 10% CH3CN/90% water (0.1 %) H0Ac. The analytes and internal standards were then eluted with 3 mL 30% CH3CN:70% (0.1 %) HOAc. This fraction was then analyzed by LC/MS without further manipulation.
LC/MS Analysis of Urine Samples for Metabolite Quantification. LC/MS analysis was performed using a Waters 2690 HPLC equipped with an autosampler and a Waters 486 tunable absorbance detector. This LC system was interfaced to a Finnigan MAT LCQ ion trap mass spectrometer. A 10 µL injection of the fraction from solid phase extraction was applied to a Waters Symmetry C8 reversed phase column (33% CH3CN:67% (0.1%) H0Ac, 2.1 mm x 150 mm, 0.2 mL/min). The post-column flow was directed through a Waters 486 tunable absorbance detector (10 µL flow cell, λ = 214 nm) which was used for qualitative assessment of the sample and not for quantitation. The flow was then directed to the electrospray ionization source of the LCQ.
The mass spectrometer was programmed to collect data in full scan mode from 190 - 320 m/z and was tuned to maximize the signal from the analytes under the HPLC conditions. The values for the electrospray parameters were as follows: heated capillary temperature = 180°C; spray voltage = 5.6 kV; capillary voltage = 20 V; sheath gas (nitrogen) flow rate = 70; auxillary gas (helium) flow rate = 20. The automatic gain control (AGC) was on with a target ion count of 7 x 10^7 ions and a maximum ion inject time of 150 ms. […]
Quantification was achieved by integration of the peaks from the mass chromatogram for each analyte using software (Navigator 1.1) provided with the LCQ. The area (expressed as counts x seconds) of the peak for each metabolite was compared to the area for its corresponding deuterated internal standard. As the absolute amount of internal standard added per mL of urine was known, the absolute amount of analyte per mL of urine could be determined.

[2] = Stability of oxazinane-dione at relevant pH; assay type: physicochemical
Text: It is anticipated, therefore, that the oxazinane-dione 9 is responsible for some aspects of felbamate's efficacy in vivo. As patients undergoing felbamate therapy for seizure control ingest large quantities of felbamate (grams per day), even a 1 - 2% conversion to a pharmacologically active metabolite could have significant effects. […] In light of the possibility that the oxazinane-dione 9 could be a metabolic precursor to the major human metabolite, acid carbamate 4, it may be formed in significant quantities (the acid carbamate was reported to represent ∼ 12% of a dose). […] Also included in this class are cyclic congeners 21 and 22, which may be formed from felbamate derivatives (see scheme II). Also included is 20, which may be an unknown metabolite of felbamate 1 and could be produced from felbamate derivative 12 by the cytochrome P450 metabolism.

pentylenetetrazol = assay: Subcutaneous Metrazol seizure test (scMET), mice i.p.; assay type: in vivo, Carworth Farms No. 1 mice; settings: mice i.p.
Text: (§1) The fluoro derivatives synthesized were submitted to the National Institute of Neurological Disorders and Stroke (NINDS) for evaluation in a standard panel of assays. Two convulsant tests (MES and scMET), and a toxicity screen (rotorod in mice, positional sense and gait in rats) were employed for evaluating the compounds activity as neuroprotecting agents. These testing procedures are described in detail in Molecular and Cellular Targets for Anti-epileptic Drugs, eds. G. Avanzini, G. Regesta, P. Tanganelli, M. Avoli, 1997, John Libbey & Company Ltd, pp 191-198. The felbamate derivatives were evaluated for anticonvulsant activity following intraperitoneal (i.p.) administration in mice and oral administration in rats.
This is a model that primarily identifies compounds that raise seizure threshold. With some minor exceptions, the pharmacological profile of the scMET seizure model is consistent with the human condition. The scMET test utilizes a dose of pentylenetetrazol (85 mg/kg in Carworth Farms No. 1 mice and 70 mg/kg in Sprague-Dawley rats) that induces clonic seizures lasting for a period of at least five seconds in 97 % (CD97) of animals tested. At the anticipated time of testing the convulsant is administered subcutaneously. The test compound is administered intraperitoneally in mice and orally in rats. Animals are observed over a 30 minute period. Absence of clonic spasms in the observed time period indicates a compound's ability to abolish the effect of pentylenetetrazol on seizure threshold.
(§2) For the MES and scMET tests the data is presented in the form of the number of animals protected by the administered compound / total number of animals tested. […] Qualitative data was obtained for fluoro felbamate 12 (Tables 1 and 2A), fluoro monocarbamate felbamate 13 (Tables 1 and 2B), and fluorodioxo 16 (Tables 1 and 2C) and for cyclic felbamate 21 (Tables 5 and 6B) and cyclic monocarbamate 22 (Tables 5 and 6A). More extensive quantitative data was also obtained for fluoro felbamate 12 in mice (Table 3) and rats (Table 4).

[3] = test system: MES-induced seizure spread; assay: Maximal Electroshock Seizure (MES) test, mice i.p.; assay type: in vivo; settings: for MES, number of animals protected / total number of animals tested: mice i.p.
Text: as §1
The MES test is a model for generalized tonic-clonic seizures and is used to identify compounds which prevent seizure spread. The behavioral and electrographic seizures generated in this model are consistent with the human disorder. In the MES test, an electrical stimulus of 0.2 s in duration (50 mA in mice and 150 mA in rat at 60Hz) was delivered via corneal electrodes primed with an electrolyte solution containing an anesthetic agent. […] Rats were tested at time intervals between 0.25 and 4 hours following a standard oral dose of 30 mg/kg. Abolition of the hindlimb tonic extensor component indicates the test compound's ability to inhibit MES-induced seizure spread.
as §2

rats = assay: Minimal neurotoxicity (TOX), positional sense and gait and stance tests, rats p.o.; assay type: in vivo; settings: rat p.o., 30 mg/kg
Text: as §1, with “G. Avanzini, G. Regesta, P. Tanganelli, M. Avoli, 1997, John Libbey & Company Ltd, pp 191-198.” left out
Rats are examined for behavioral toxicity by the positional sense test and a gait and stance test. […] In the gait and stance test, neurotoxicity is indicated by a circular or zigzag gait, ataxia, abnormal spread of the legs, abnormal posture, tremor hyperactivity, lack of exploratory behavior, somnolence, stupor or catalepsy. […]

mice = assay: Minimal neurotoxicity (TOX), rotorod test, mice i.p.; assay type: in vivo; settings: mice i.p.
Text: as §1, with “G. Avanzini, G. Regesta, P. Tanganelli, M. Avoli, 1997, John Libbey & Company Ltd, pp 191-198.” left out, “rats. […]” for “rats.”

[4] = test system: MES-induced seizure spread; assay: Maximal Electroshock Seizure (MES) test, rats p.o.; assay type: in vivo, rat; settings: for MES, number of animals protected / total number of animals tested: rat p.o., 30 mg/kg
Text: as §1
The MES test is a model for generalized tonic-clonic seizures and is used to identify compounds which prevent seizure spread. The behavioral and electrographic seizures generated in this model are consistent with the human disorder. In the MES test, an electrical stimulus of 0.2 s in duration (50 mA in mice and 150 mA in rat at 60Hz) was delivered via corneal electrodes primed with an electrolyte solution containing an anesthetic agent. Mice were tested at 30 minutes and 4 hours following doses of 30, 100 and 300 mg/kg of test compound. Rats were tested at time intervals between 0.25 and 4 hours following a standard oral dose of 30 mg/kg. Abolition of the hindlimb tonic extensor component indicates the test compound's ability to inhibit MES-induced seizure spread.
as §2

[5] = patients on felbamate monotherapy; cited from earlier work
[6] = test system: painful peripheral neuropathy; settings: rat model of painful peripheral neuropathy; cited from earlier work
[7] = urine of patients on felbamate therapy, 34 samples

average ratio of Nac-alcohol to Nac-acid [1, 7]: 6.4
ratio of Nac-alcohol to Nac-acid (range over patients) [1, 7]: 2- 14
SMILES: CC(=O)N[C@@H](CSCC(CO)c1ccccc1)C(=O)O (stereo partly shown) [Nac-alcohol]

stability at relevant pH (in words) [2]: unstable
SMILES: O=C1NC(=O)C(c2ccccc2)CO1 (stereo not shown) [oxazinane-dione 9]

SMILES: O=C1NC(=O)C(F)(c2ccccc2)CO1 (stereo not shown) [fluoro dioxo, 5-Fluoro-5-phenyl-1,3-oxazinane-2,4-dione]
ScMET, number of animals protected / total number of animals tested (pentylenetetrazol; 30 mg/kg, 0.5h): 0/1
ScMET, number of animals protected / total number of animals tested (pentylenetetrazol; 30 mg/kg, 4.0h): 0/1
ScMET, number of animals protected / total number of animals tested (pentylenetetrazol; 100 mg/kg, 0.5h): 0/1
ScMET, number of animals protected / total number of animals tested (pentylenetetrazol; 100 mg/kg, 4.0h): 0/1
ScMET, number of animals protected / total number of animals tested (pentylenetetrazol; 300 mg/kg, 0.5h): 0/1
ScMET, number of animals protected / total number of animals tested (pentylenetetrazol; 300 mg/kg, 4.0h): 0/1
anti-seizure activity (in words) ([3]; mice): inactive
MES, number of animals protected / total number of animals tested ([3]; 30 mg/kg, 0.5h): 0/1
MES, number of animals protected / total number of animals tested ([3]; 30 mg/kg, 4.0h): 0/1
MES, number of animals protected / total number of animals tested ([3]; 100 mg/kg, 0.5h): 0/3
MES, number of animals protected / total number of animals tested ([3]; 100 mg/kg, 4.0h): 0/3
MES, number of animals protected / total number of animals tested ([3]; 300 mg/kg, 0.5h): 0/1
MES, number of animals protected / total number of animals tested ([3]; 300 mg/kg, 4.0h): 0/1
TOX, number of animals exhibiting toxic effects / total number of animals tested (rats; 0.25h): 0/4
TOX, number of animals exhibiting toxic effects / total number of animals tested (rats; 0.5h): 0/4
TOX, number of animals exhibiting toxic effects / total number of animals tested (rats; 1.0h): 0/4
TOX, number of animals exhibiting toxic effects / total number of animals tested (rats; 2.0h): 0/4
TOX, number of animals exhibiting toxic effects / total number of animals tested (rats; 4.0h): 0/4
TOX, number of animals exhibiting toxic effects / total number of animals tested (mice; 30 mg/kg, 0.5h): 0/4
TOX, number of animals exhibiting toxic effects / total number of animals tested (mice; 30 mg/kg, 4.0h): 0/2
TOX, number of animals exhibiting toxic effects / total number of animals tested (mice; 100 mg/kg, 0.5h): 0/8
TOX, number of animals exhibiting toxic effects / total number of animals tested (mice; 100 mg/kg, 4.0h): 0/4
TOX, number of animals exhibiting toxic effects / total number of animals tested (mice; 300 mg/kg, 0.5h): 1/4
TOX, number of animals exhibiting toxic effects / total number of animals tested (mice; 300 mg/kg, 4.0h): 0/2
MES, number of animals protected / total number of animals tested ([4]; 0.25h): 0/4
MES, number of animals protected / total number of animals tested ([4]; 0.5h): 1/4
MES, number of animals protected / total number of animals tested ([4]; 1.0h): 1/4
MES, number of animals protected / total number of animals tested ([4]; 2.0h): 1/4
MES, number of animals protected / total number of animals tested ([4]; 4.0h): 2/4
anti-seizure activity (in words) ([4]; rats): strong anti-seizure activity

amount of felbamate excreted per mL of urine ([1]; patient with total daily dose of 3.6 grams of felbamate (lowest of range)): 819 ± 8.5 nmol/mL
amount of felbamate excreted per mL of urine ([1]; patient with total daily dose of 6.0 grams of felbamate (highest of range)): 10,064 ± 515 nMoles/mL
SMILES: NC(=O)OCC(COC(N)=O)c1ccccc1 [felbamate, 2-phenyl-1,3-propanediol dicarbamate]
Weight loss [5]: 4-5%
effect on measures of pain (in words) [6]: significant reductions in all measures of pain
